Data reported in paper PMC8480273, “Design, synthesis, and biological evaluation of symmetrical azine derivatives as novel tyrosinase inhibitors” (BMC Chemistry, 2021).
Like-named read-outs stand apart in the source and are kept apart here. Blank lines part the entries; values can stand above or below the molecule they belong to.

How the values were obtained:
[1] = MTT assay for cell viability, A375; type: cell-based; details: human, A375 melanoma cells, A375, 10 µM, ± SD
Protocol: The A375 cell line is derived from a human skin melanoma carrying two mutant genes, B-RAF and CDKN2 which are associated with melanoma of sun-damaged skin [48]. To determine the cytotoxicity of 3f in A375 melanoma cell lines, MTT studies were conducted.
(§1) The cytotoxic activity of compound was evaluated in B16F10 cells using 3-(4,5-dimethylthiazol-2-yl)-2,5-diphenyltetrazolium bromide (MTT) assay. Cells were seeded in a 96-well plate (5 × 10^3 cells/well) and incubated at 37 °C with samples at different concentrations for 48 h. Following the treatment, cells were incubated with MTT (0.5 mg mL^−1) at 37 °C for 3 h. The MTT-containing medium was then removed, and 100 μL of DMSO was added to each well, mixed thoroughly with a 10 min shake to dissolve formazan crystals. The absorbance of each well was measured at 540 nm.

B16F10 melanoma cells = test: Melanin content assay; type: cell-based; details: B16F10, 10 µM, in comparison with the control
Protocol: B16F10 cells were seeded in six-well plates (1.0 × 10^5 cells/well). After 24 h, the medium was substituted by a fresh one and treated with 3f, and incubated for 48 h. Then, cells were treated with 100 nM α -MSH. […] After incubation cells were washed twice with PBS and harvested using […] trypsin, then dissolved in 300 μL of 1 N NaOH/10% DMSO buffer and boiled for 2 h at 80 °C to solubilize the melanin. The absorbance of the supernatant was measured at 470 nm in a microplate reader. The obtained results were normalized using total protein content.

mushroom tyrosinase = target: T1, mushroom tyrosinase (Agaricus bisporus, UniProt C7FF04); test: Determination of the inhibition type (Lineweaver–Burk kinetics); type: biochemical; details: Lineweaver–Burk plot, L-DOPA substrate
T1 construct: purchased Sigma Chemical Co. (St. Louis, MO, USA)
Protocol: A series of experiments were performed to determine the inhibition kinetics of 3f. The inhibitor concentrations were: 0, 8, 16 μM. Substrate (L-DOPA) concentrations were (0.1, 0.25, 0.5, 0.75 and 1.5 mM) in kinetic studies. Pre-incubation and measurement time was the same as discussed in the mushroom tyrosinase inhibition assay protocol. Maximum initial velocity was determined from the initial linear portion of absorbance up to 10 min after addition of L-DOPA with 1 min interval. The Michaelis constant (Km) and the maximal velocity (Vmax) of the tyrosinase activity were determined by the Lineweaver–Burk plot at various concentrations of L-DOPA as a substrate. The inhibition type of the enzyme was assayed by Lineweaver–Burk plots of the inverse of velocities (1/V) versus the inverse of substrate concentrations 1/[S] mM^−1.

[2] = MTT assay for cell viability, B16F10; type: cell-based; details: mouse, B16F10 melanoma cells, B16F10, 10 µM, ± SD
Protocol: as §1

tyrosinase = details: cited from earlier work

T1 sequence (C7FF04 1-392): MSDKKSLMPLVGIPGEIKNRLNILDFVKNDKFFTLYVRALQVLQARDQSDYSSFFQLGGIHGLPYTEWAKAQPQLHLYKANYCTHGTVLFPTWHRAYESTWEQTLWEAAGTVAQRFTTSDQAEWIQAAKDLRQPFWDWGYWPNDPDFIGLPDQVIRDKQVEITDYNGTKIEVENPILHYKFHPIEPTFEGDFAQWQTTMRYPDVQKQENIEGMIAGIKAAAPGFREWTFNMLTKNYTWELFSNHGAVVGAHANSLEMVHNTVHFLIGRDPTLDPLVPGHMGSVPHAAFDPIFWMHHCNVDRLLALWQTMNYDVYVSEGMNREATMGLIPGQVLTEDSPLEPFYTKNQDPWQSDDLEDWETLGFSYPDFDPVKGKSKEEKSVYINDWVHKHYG

Vmax and Km values in the presence of increasing concentrations of compound (mushroom tyrosinase): decreased
type of inhibition (mushroom tyrosinase; inhibitor 0, 8, 16 μM): uncompetitive
Molecule: Oc1ccc(C=NN=Cc2ccc(O)cc2O)c(O)c1 [Compound 3f, 4,4′-(Hydrazine-1,2-diylidenebis(methaneylylidene))bis(benzene-1,3-diol)]
viability at 48 h, 10 µM [1]: > 82%
Melanin content (%) (B16F10 melanoma cells): 79.58%
viability at 48 h, 10 µM [2]: 60.1 ± 9.82%

Molecule: CCOc1cc(/C=N/NC(=O)c2ccc(O)cc2)ccc1O [D]
IC50 (tyrosinase; hydrazine-containing compound): 9.9 µM

Molecule: O=C1c2c(O)cc(O)cc2O[C@H](c2ccc(O)cc2O)[C@H]1O [Dihydromorin]
IC50 (tyrosinase; Fig. 1, flavanol): 10.3 µM

Molecule: CCOc1cc(/C=N/NC(=O)c2ccc(O)c(OC)c2)ccc1O [E]
IC50 (tyrosinase; hydrazine-containing compound): 1.58 µM

Molecule: NC(=S)N/N=C/c1ccc([N+](=O)[O-])cc1 [F]
IC50 (tyrosinase; hydrazine-containing compound): 0.05 µM

Molecule: O=c1cc(-c2ccc(O)c(O)c2)oc2cc(O)cc(O)c12 [Luteolin]
IC50 (tyrosinase; Fig. 1, flavone): 60 µM

Molecule: O=c1c(O)c(-c2ccc(O)c(O)c2)oc2cc(O)cc(O)c12 [Quercetin]
Ki (tyrosinase; Fig. 1, flavonol): 29 µM

Molecule: Oc1ccc(/C=C/c2cc(O)cc(O)c2)cc1 [Resveratrol, 3,5,4′-trihydroxy-trans-stilbene]
IC50 (tyrosinase; Fig. 1, stilbenoid): 1 to 9 µM
IC50 (tyrosinase; resveratrol): 26.6 µM

Molecule: O=C1CC(c2ccc(O)cc2O)Oc2cc(O)cc(O)c21 (stereo not drawn) [Streppogenin]
IC50 (tyrosinase; Fig. 1, flavanone): 1.3 µM

Molecule: Oc1ccc(/C=N/c2ccccc2O)c(O)c1 [compound B]
IC50 (tyrosinase; most potent bibenzyl compound of Oozeki et al.): 0.37 µM

Molecule: Chalcone
IC50 (tyrosinase; Fig. 1, chalcone): 8.1 µM

Molecule: Phthalimide
IC50 (tyrosinase; Fig. 1, phthalimide): 26.2 µM

Molecule: Quinazoline
IC50 (tyrosinase; Fig. 1, quinazoline): 0.46 µM
